Assay results published in publication PMC11413854, “Reversible Control of Native GluN2B-Containing NMDA Receptors with Visible Light” (ACS Chemical Neuroscience, 2024).
Several values for one entry are separate records, joined by “and”; a condition that tells them apart may be missing. Equal entries are not always repeated. Where two headings read alike, the source gives them in different places.

Target: T1, GluN1/GluN2B NMDA receptors (UniProt P35439+Q01097)
T1 construct: expressed in transfected cells; host or cells: Xenopus laevis oocytes (nuclear cDNA injection)
Test: TEVC electrophysiology on Xenopus oocytes expressing wt GluN1/GluN2B NMDARs
Assay type: cell-based, rat GluN1, mouse GluN2B
Conditions: for inhibition of GluN1/GluN2B wt: 1 µM trans-OptoNAM-3 (dark); for IC50: 100 µM glutamate + glycine, Xenopus oocytes; for remaining activity at 1 µM: [OptoNAM-3] 1 µM; for remaining activity at 3 µM: [OptoNAM-3] 3 µM; for remaining activity at 5 µM: [OptoNAM-3] 5 µM; for remaining activity at 0.025 µM: [OptoNAM-3] 0.025 µM; for remaining activity at 0.05 µM: [OptoNAM-3] 0.05 µM; for remaining activity at 0.22 µM: [OptoNAM-3] 0.22 µM; for remaining activity at 30 µM: [OptoNAM-3] 30 µM; for Relative current for theoretical DRC 9% trans: theoretical for 350 nm PSS
Source text: The activity of OptoNAM-3 was functionally monitored by electrophysiology on Xenopus oocytes (see Methods). To assess the light-dependent effect, we tested the activities of the dark PSS (mostly trans) and the UV PSS (mostly cis, see above) separately. For each concentration, we prepared a solution divided into two samples: one in which the compound was kept in the dark for the duration of the experiment (dark PSS state); and the other that was preilluminated with either 350 or 365 nm light (350 or 365 nm PSS) and then kept away from the light for the duration of the experiment in order to avoid photoisomerization of the compounds by ambient light (see Methods). […] We generated dose–response curves of OptoNAM-3 dark and UV PSS on wild-type (wt) GluN1/GluN2B NMDA receptors (Figure 3A) in the presence of saturating concentrations of agonists (100 μM glutamate and glycine).
We used cDNA coding for rat GluN1–1a (named GluN1 herein) (GenBank: U08261.1), rat GluN2A (GenBank: D13211.1), mouse GluN2B (GenBank: D10651.2), rat GluA1 flop (GenBank: M36418.2), and rat Myc-GluA2(Q)-flip (GenBank: AF164344.1) cloned into pcDNA3-based expression plasmids. GluK2 (GenBank: Z11548.1) corresponds to the fully RNA-edited version.[80] The GluN2B-ΔNTD construct is from ref[45] and GluN2B–N615K is from ref[81]. Single mutants GluN2B-Q110G and GluN1-L135H were from ref[19]. The GluA2 cDNA contains a Myc tag ([…]) fused between the signal peptide and the N-terminus sequences, and the GluA2 subunit is […] for its Q/R/N site (GluA2(Q)) to allow permeation of homomeric GluA2 receptors.[2] cDNAs coding for rat GluN2C (GenBank: M91563.1) and GluN2D subunits (GenBank: L31611.1) were in prK5 plasmids.
Oocytes from Xenopus laevis were used for heterologous expression of recombinant NMDA receptors studied using a two-electrode voltage clamp (TEVC). Female Xenopus laevis were housed and ovary bags harvested according to the European Union guidelines (husbandry authorizations #C75–05–31 and #D75–05–31; project authorizations #05137.02; and Apafis #28867–2020121814485893). Fragments of ovary bags were also purchased from the “Centre de Ressources Biologiques Xenopes” (now TEFOR, Paris Saclay, France) and from the European Xenopus Resource Center (EXRC, Portsmouth, UK). Xenopus laevis oocytes were harvested and prepared as previously described in ref[82].
Expression of recombinant NMDA receptors was obtained by oocyte nuclear coinjection of 37 nL of a mixture of cDNAs (at 30 ng/μL) coding for GluN1–1a and various GluN2 subunits (ratio 1:1). The protocol in ref[43] was followed for the expression of GluN1/GluN2A/GluN2B triheteromers. The oocytes were transferred in 96-well plates filled with Barth solution (in mM: 88 NaCl, 1 KCl, 0.33 Ca(NO3)2, 0.41 CaCl2, 0.82 MgSO4, 2.4 NaHCO3, and 7.5 HEPES, pH adjusted to 7.3 with NaOH), supplemented with gentamicin ([…]) and 50 μM APV, a selective NMDA receptor antagonist. Plates were then stored at 18 °C for 24 h for GluN1/GluN2A expression and for 48––72 h for the expression of GluN1/Glu2B, GluN1/GluN2A/GluN2B, and mutants.
TEVC recordings were performed 1–3 days following injection. TEVC recordings were performed using an Oocyte Clamp amplifier OC-725 (Warner Instruments) and computer-controlled via a 1440A Digidata (Molecular Devices). Currents were sampled at 100 Hz and low-pass-filtered at 20 Hz using an 8-pole Bessel filter (900 Series, Frequency Devices Inc.).

[1] = GluN1/GluN2B wt, OptoNAM-3 350 nm PSS, read-out: Relative current (IOpto/I0)
[2] = GluN1/GluN2B wt, OptoNAM-3 365 nm PSS, read-out: Relative current (IOpto/I0)
[3] = GluN1/GluN2B wt, OptoNAM-3 dark PSS (trans), read-out: Relative current (IOpto/I0)

T1 sequence (Q01097 27-1482, other chains not shown): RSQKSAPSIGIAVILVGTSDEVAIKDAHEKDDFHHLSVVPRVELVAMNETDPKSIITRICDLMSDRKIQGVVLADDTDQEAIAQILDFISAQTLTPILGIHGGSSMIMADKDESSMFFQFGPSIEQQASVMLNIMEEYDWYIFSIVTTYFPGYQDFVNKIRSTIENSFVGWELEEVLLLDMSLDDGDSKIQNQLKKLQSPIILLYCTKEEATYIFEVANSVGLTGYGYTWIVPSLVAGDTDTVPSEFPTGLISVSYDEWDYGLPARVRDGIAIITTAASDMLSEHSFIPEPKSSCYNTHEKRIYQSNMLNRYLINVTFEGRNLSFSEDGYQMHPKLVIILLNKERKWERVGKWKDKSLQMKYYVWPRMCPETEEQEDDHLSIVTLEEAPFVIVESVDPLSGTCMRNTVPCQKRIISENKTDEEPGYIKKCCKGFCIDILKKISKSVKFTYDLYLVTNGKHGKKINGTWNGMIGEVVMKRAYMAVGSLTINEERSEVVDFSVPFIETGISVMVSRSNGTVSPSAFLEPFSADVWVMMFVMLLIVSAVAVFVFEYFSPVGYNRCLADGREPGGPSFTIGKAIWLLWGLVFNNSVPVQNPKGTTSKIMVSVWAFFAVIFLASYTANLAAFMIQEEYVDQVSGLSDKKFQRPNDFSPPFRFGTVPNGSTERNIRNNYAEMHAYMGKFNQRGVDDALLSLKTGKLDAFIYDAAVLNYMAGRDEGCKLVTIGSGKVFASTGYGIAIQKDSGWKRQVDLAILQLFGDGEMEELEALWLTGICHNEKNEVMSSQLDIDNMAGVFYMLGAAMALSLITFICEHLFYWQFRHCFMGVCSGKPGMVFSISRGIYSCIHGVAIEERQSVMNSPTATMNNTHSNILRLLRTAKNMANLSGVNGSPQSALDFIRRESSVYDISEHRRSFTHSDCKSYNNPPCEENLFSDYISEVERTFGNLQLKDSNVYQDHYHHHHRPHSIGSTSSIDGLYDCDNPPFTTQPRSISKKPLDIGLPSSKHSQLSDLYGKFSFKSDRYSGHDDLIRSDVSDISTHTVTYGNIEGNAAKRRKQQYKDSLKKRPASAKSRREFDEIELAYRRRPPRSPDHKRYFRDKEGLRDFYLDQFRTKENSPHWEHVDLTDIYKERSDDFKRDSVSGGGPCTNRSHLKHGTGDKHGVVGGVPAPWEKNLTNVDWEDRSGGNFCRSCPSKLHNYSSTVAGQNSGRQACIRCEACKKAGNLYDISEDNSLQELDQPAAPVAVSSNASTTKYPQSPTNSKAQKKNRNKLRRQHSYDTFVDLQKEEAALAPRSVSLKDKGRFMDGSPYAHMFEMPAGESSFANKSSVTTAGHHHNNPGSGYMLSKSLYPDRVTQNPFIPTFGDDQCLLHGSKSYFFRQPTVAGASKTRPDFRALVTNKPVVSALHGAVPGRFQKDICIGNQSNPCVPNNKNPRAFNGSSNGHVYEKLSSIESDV

c1ccc(/N=N/c2ccc(CCNc3ccncc3)cc2)cc1 [OptoNAM-3, (E)-N-(4-(Phenyldiazenyl)phenethyl)pyridin-4-amine]
Relative current for theoretical 100% cis (0.025 µM, calculated from the 365 nm PSS curve): 0.953 | Relative current for theoretical 100% cis (0.050 µM, calculated from the 365 nm PSS curve): 0.945 | Relative current for theoretical 100% cis (0.125 µM, calculated from the 350 nm PSS curve): 0.949 | Relative current for theoretical 100% cis (0.125 µM, calculated from the 365 nm PSS curve): 0.988 | Relative current for theoretical 100% cis (0.220 µM, calculated from the 365 nm PSS curve): 1.000 | Relative current for theoretical 100% cis (0.300 µM, calculated from the 350 nm PSS curve): 1.005 | Relative current for theoretical 100% cis (0.300 µM, calculated from the 365 nm PSS curve): 0.993 | Relative current for theoretical 100% cis (0.470 µM, calculated from the 350 nm PSS curve): 1.025 | Relative current for theoretical 100% cis (0.500 µM, calculated from the 365 nm PSS curve): 0.891 | inhibition of GluN1/GluN2B wt: 69.305% | inhibition of GluN1/GluN2B wt (listed as trans-OptoNAM-3): 69% ± 2% | Relative current for theoretical 100% cis (1.000 µM, calculated from the 350 nm PSS curve): 1.085 | Relative current for theoretical 100% cis (1.000 µM, calculated from the 365 nm PSS curve): 0.988 | Relative current for theoretical 100% cis (2.000 µM, calculated from the 350 nm PSS curve): 1.000 | Relative current for theoretical 100% cis (2.000 µM, calculated from the 365 nm PSS curve): 0.933 | Relative current for theoretical 100% cis (3.000 µM, calculated from the 350 nm PSS curve): 1.043 | Relative current for theoretical 100% cis (3.000 µM, calculated from the 365 nm PSS curve): 0.959 | Relative current for theoretical 100% cis (5.000 µM, calculated from the 350 nm PSS curve): 0.994 | Relative current for theoretical 100% cis (5.000 µM, calculated from the 365 nm PSS curve): 0.960 | inhibition at 10 µM (10 µM OptoNAM-3 365 nm PSS, construct GluN1/GluN2B, read-out: Inhibition (%)): 68% | Inhibition, individual values (10 µM OptoNAM-3 dark PSS (trans) as headed, GluN1/GluN2B, single cells, second block): 0.6438 and 0.6778 and 0.6833 and 0.7763 | inhibition at 10 µM (10 µM OptoNAM-3 dark PSS (trans) as headed, GluN1/GluN2B, single cells, second block, read-out: Inhibition, individual values): 63.8% | Inhibition, individual values (10 µM OptoNAM-3 dark PSS (trans), GluN1/GluN2B, single cells, first block): 0.9137 and 0.9546 and 0.9747 | inhibition at 10 µM (10 µM OptoNAM-3 dark PSS (trans), GluN1/GluN2B, single cells, first block, read-out: Inhibition, individual values): 92.7% | inhibition at 10 µM (10 µM OptoNAM-3 dark PSS (trans), construct GluN1/GluN2B, read-out: Inhibition (%)): 94% | Relative current for theoretical 100% cis (30.000 µM, calculated from the 365 nm PSS curve): 0.961 | IC50 (350 nm PSS, read-out: IC50 on GluN1/GluN2B receptors, preilluminated with 350 nm): 4.4 µM and 4.38 µM | IC50 (365 nm PSS, read-out: IC50 on GluN1/GluN2B receptors, preilluminated with 365 nm): 1.7 µM | remaining activity at 0.125 µM (GluN1/GluN2B wt, OptoNAM-3 350 nm PSS, [OptoNAM-3] 0.125 µM, read-out: Relative current (IOpto/I0)): 90.7% | remaining activity at 0.3 µM (GluN1/GluN2B wt, OptoNAM-3 350 nm PSS, [OptoNAM-3] 0.3 µM, read-out: Relative current (IOpto/I0)): 91.8% | remaining activity at 0.47 µM (GluN1/GluN2B wt, OptoNAM-3 350 nm PSS, [OptoNAM-3] 0.47 µM, read-out: Relative current (IOpto/I0)): 90% | remaining activity at 1 µM [1]: 86% | remaining activity at 2 µM (GluN1/GluN2B wt, OptoNAM-3 350 nm PSS, [OptoNAM-3] 2 µM, read-out: Relative current (IOpto/I0)): 65.6% | remaining activity at 3 µM [1]: 61.3% | remaining activity at 5 µM [1]: 44.6% | remaining activity at 0.025 µM [2]: 93.3% | remaining activity at 0.05 µM [2]: 91% | remaining activity at 0.125 µM (GluN1/GluN2B wt, OptoNAM-3 365 nm PSS, [OptoNAM-3] 0.125 µM, read-out: Relative current (IOpto/I0)): 91.2% | remaining activity at 0.22 µM [2]: 88% | remaining activity at 0.3 µM (GluN1/GluN2B wt, OptoNAM-3 365 nm PSS, [OptoNAM-3] 0.3 µM, read-out: Relative current (IOpto/I0)): 84.1% | remaining activity at 0.5 µM (GluN1/GluN2B wt, OptoNAM-3 365 nm PSS, [OptoNAM-3] 0.5 µM, read-out: Relative current (IOpto/I0)): 66.6% | remaining activity at 1 µM [2]: 64.4% | remaining activity at 2 µM (GluN1/GluN2B wt, OptoNAM-3 365 nm PSS, [OptoNAM-3] 2 µM, read-out: Relative current (IOpto/I0)): 43.3% | remaining activity at 3 µM [2]: 37.5% | remaining activity at 5 µM [2]: 26.7% | remaining activity at 30 µM [2]: 3.4% | remaining activity at 0.025 µM [3]: 88.7% | remaining activity at 0.05 µM [3]: 82.7% | remaining activity at 0.125 µM (GluN1/GluN2B wt, OptoNAM-3 dark PSS (trans), [OptoNAM-3] 0.125 µM, read-out: Relative current (IOpto/I0)): 75.8% | remaining activity at 0.22 µM [3]: 59.2% | remaining activity at 0.3 µM (GluN1/GluN2B wt, OptoNAM-3 dark PSS (trans), [OptoNAM-3] 0.3 µM (Sup. Fig. 3A/B/E), read-out: Relative current (IOpto/I0)): 58.1% | remaining activity at 1 µM [3]: 30.7% | remaining activity at 2 µM (GluN1/GluN2B wt, OptoNAM-3 dark PSS (trans), [OptoNAM-3] 2 µM (Sup. Fig. 3A/B/E), read-out: Relative current (IOpto/I0)): 14.1% | remaining activity at 3 µM [3]: 9.8% | remaining activity at 5 µM [3]: 9.2% | remaining activity at 30 µM [3]: 0.423% | Relative current for theoretical DRC 9% trans (GluN1/GluN2B wt, [OptoNAM-3] 0.125 µM): 0.958 | Relative current for theoretical DRC 9% trans (GluN1/GluN2B wt, [OptoNAM-3] 0.3 µM): 0.913 | Relative current for theoretical DRC 9% trans (GluN1/GluN2B wt, [OptoNAM-3] 0.47 µM): 0.875
